From ChEMBL document CHEMBL6103652, “Niacin Ester Derivative of Brefeldin A as a Potential Dual-Target Arf1/BMX Inhibitor for Bladder Cancer” (J Nat Prod, 2025)
Calls of active or inactive are those of the source. The calls are words filed in the database; no cut-off is given here.

Columns and labels:
[1] = Selectivity index, ratio of IC50 for cytotoxicity against human LO2 cells to IC50 for antiproliferative activity against human T24 cells; assay type: toxicity, cell-based; details: LO2 cells and T24 cells, read-out: Ratio IC50
MB49 = test: Antitumor immunity against mouse MB49 cells implanted in male C57BL/6 mouse assessed as increase in infiltration of CD3+ cells at 1 mg/kg,iv bid measured after 14 days immunofluorescence based analysis; assay type: functional, organism-based; details: time 14.0 day
T-24 [2] = test: Inhibition of cell migration in human T24 cells at 0.125 uM incubated for 24 hrs by scratch assay (reference value: 88 %); assay type: functional; details: T-24, 24 h
[3] = Antiproliferative activity against […] MB49 cells assessed as inhibition of cell proliferation measured after 72 hrs by MTT assay; assay type: functional, cell-based; details: MB49, 72 h
[4] = MRT(0 to t) in Sprague-Dawley rat at 5 mg/kg, iv measured upto 24 hrs; assay type: ADME, organism-based; details: in vivo
T-24 [5] = test: Inhibition of cell migration in human T24 cells at 0.50 uM incubated for 12 hrs by scratch assay (reference value: 66 %); assay type: functional
T-24 [6] = test: Inhibition of colony formation in human T24 cells at 0.50 uM measured after 10 days by crystal violet staining based analysis relative to control; assay type: functional; details: T-24, 240 h, time 10 day
[7] = Downregulation of AKT expression level in human T24 cells at 0.13 to 0.50 uM incubated for 24 hrs by Western blotting analysis relative to control; assay type: functional, T-24; details: dose 0.13-0.5 µM, at 0.13 to 0.5 µM
T-24 [8] = test: Induction of cell cycle arrest in human T24 cells assessed as accumulation of cells at S phase at 0.50 uM incubated for 24 hrs by RNase A/Propidium Iodide staining based flow cytometry analysis (reference value: 31.27 %); assay type: functional; details: dose 0.5 µM
T-24 [9] = test: Induction in apoptosis in human T24 cells assessed as total apoptotic cells at 0.125 to 0.50 uM incubated for 48 hrs by Annexin V-FITC staining based flow cytometry analysis (reference value: 8 %); assay type: functional; details: dose 0.125-0.5 µM, at 0.125 to 0.5 µM
[10] = biological target: T1, Cytoplasmic tyrosine-protein kinase BMX (Homo sapiens) (UniProt P51813); test: Induction of thermal stabilization of BMX in human T24 cells pretreated for 2 hrs followed by pronase addition and measured after 25 mins by DARTS assay; assay type: cell-based; details: dose 0.2-5 mM
T1 sequence (whole entry): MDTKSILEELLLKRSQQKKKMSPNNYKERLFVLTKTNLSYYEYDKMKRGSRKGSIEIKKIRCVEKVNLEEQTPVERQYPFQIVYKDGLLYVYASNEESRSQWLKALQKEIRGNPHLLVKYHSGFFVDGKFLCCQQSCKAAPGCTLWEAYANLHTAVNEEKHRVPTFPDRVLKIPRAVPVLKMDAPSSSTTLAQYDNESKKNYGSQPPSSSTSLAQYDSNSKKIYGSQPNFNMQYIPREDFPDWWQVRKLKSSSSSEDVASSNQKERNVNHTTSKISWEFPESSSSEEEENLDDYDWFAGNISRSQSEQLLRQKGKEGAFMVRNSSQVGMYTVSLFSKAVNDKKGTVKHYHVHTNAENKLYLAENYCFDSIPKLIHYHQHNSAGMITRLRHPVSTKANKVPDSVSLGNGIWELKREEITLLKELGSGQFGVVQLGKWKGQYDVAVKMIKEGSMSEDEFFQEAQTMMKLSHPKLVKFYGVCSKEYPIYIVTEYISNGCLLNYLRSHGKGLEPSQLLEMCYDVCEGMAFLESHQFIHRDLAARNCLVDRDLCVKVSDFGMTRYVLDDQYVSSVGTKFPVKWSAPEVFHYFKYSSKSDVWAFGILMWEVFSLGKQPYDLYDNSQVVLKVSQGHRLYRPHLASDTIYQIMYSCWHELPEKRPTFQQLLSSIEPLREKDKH

[11] = Downregulation of BMX expression level in human T24 cells at 0.5 uM incubated for 24 hrs by Western blotting analysis relative to control; assay type: functional, T-24
T-24 [12] = test: Induction in apoptosis in human T24 cells assessed as early apoptotic cells at 0.13 uM incubated for 48 hrs by Annexin V-FITC staining based flow cytometry analysis (reference value: 3.64 %); assay type: functional
[13] = Downregulation of p-STAT3 expression level in human T24 cells at 0.5 uM incubated for 24 hrs by Western blotting analysis relative to control; assay type: functional, T-24
T-24 [14] = test: Inhibition of colony formation in human T24 cells at 0.25 uM measured after 10 days by crystal violet staining based analysis; assay type: functional, cell-based; details: time 10.0 day

With `C[C@H]1CCC/C=C/[C@@H]2C[C@H](O)C[C@H]2[C@H](OC(=O)c2cccnc2)/C=C/C(=O)O1` the selectivity ratio [1] was 3.59, the Activity (MB49) was “Active” and the wound closure at 0.125 µM (T-24 [2]) was 44%. It also gave an IC50 [3] of 4.77 µM, an MRT last at 24 h [4] of 8.4 min and a wound closure at 0.5 µM (T-24 [5]) of 13%. For the same molecule, the inhibition at 0.5 µM (T-24 [6]) was 100%, the Activity [7] was 62% and the Activity (T-24 [8]) was 19.52%. For the same molecule, the Activity (T-24 [9]) was 31%, the Activity [10] was “Dose-dependent-effect” and the Activity [11] was 35%. The Activity (T-24 [12]) was 5.52%, the Activity [13] was 55% and the inhibition (T-24 [14]) was “Active; Entirely Suppressed Clone Formation Was Observed”.
